PubChem BioAssay (NCI)
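Protocol summary: plate cells (96-well), add compound at 5 concentrations, incubate 48 h, interpolate endpoints linearly. At the GI50, growth is halved. TGI denotes the concentration required for complete inhibition of growth.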

Columns and labels:
Experiment in all cases: NCI-60 cell line screen, 48 h
NCI-H522 lung = system: NCI-H522 lung
SF-295 CNS = system: SF-295 CNS
SK-MEL-28 melanoma = system: SK-MEL-28 melanoma
SK-MEL-5 melanoma = system: SK-MEL-5 melanoma
COLO 205 colon = system: COLO 205 colon
CAKI-1 renal = system: CAKI-1 renal
CCRF-CEM leukemia = system: CCRF-CEM leukemia
U251 CNS = system: U251 CNS
SNB-19 CNS = system: SNB-19 CNS
HCT-116 colon = system: HCT-116 colon

| SMILES | GI50 (NCI-H522 lung) [µM] | TGI (NCI-H522 lung) [µM] | GI50 (SF-295 CNS) [µM] | TGI (SF-295 CNS) [µM] | GI50 (SK-MEL-28 melanoma) [µM] | TGI (SK-MEL-28 melanoma) [µM] | GI50 (SK-MEL-5 melanoma) [µM] | TGI (SK-MEL-5 melanoma) [µM] | GI50 (COLO 205 colon) [µM] | TGI (COLO 205 colon) [µM] | GI50 (CAKI-1 renal) [µM] | TGI (CAKI-1 renal) [µM] | GI50 (CCRF-CEM leukemia) [µM] | TGI (CCRF-CEM leukemia) [µM] | GI50 (U251 CNS) [µM] | TGI (U251 CNS) [µM] | GI50 (SNB-19 CNS) [µM] | TGI (SNB-19 CNS) [µM] | TGI (HCT-116 colon) [µM] | GI50 (HCT-116 colon) [µM] |
| --- | --- | --- | --- | --- | --- | --- | --- | --- | --- | --- | --- | --- | --- | --- | --- | --- | --- | --- | --- | --- |
| C=C1C(=O)O[C@H]2[C@H](OC(C)=O)[C@@H](C)CCC/C(C)=C/CC[C@]3(CO3)[C@H](O)C[C@@H]12 | 6.22 | 20.2 | 19.7 | 49.3 | 2.21 | 4.8 | 13.4 | 27.4 | 3.89 | 13.7 | 1.91 | 4.51 | 1.87 | 4.77 | 3.71 | 12.4 | 15.2 | 28.5 | – | – |
| Nc1nc(Cl)cc(NCCCCCCCCCCNc2cc(Cl)nc(N)n2)n1 | – | 11.5 | – | 46.4 | – | – | – | 4.47 | – | > 100 | – | > 100 | – | > 100 | – | > 100 | – | > 100 | > 100 | – |
| COS(=O)CCOC(=O)c1ccccc1SSc1ccccc1C(=O)OCCS(=O)OC (stereo not drawn) | – | 18.6 | – | > 100 | – | > 100 | – | > 100 | – | 49.1 | – | 73.1 | – | > 100 | – | > 100 | – | > 100 | – | – |
| O=C(O)c1oc2ccc([N+](=O)[O-])c3c2c1CCC3 | – | > 100 | – | > 100 | – | > 100 | – | – | – | > 100 | – | > 100 | – | – | – | > 100 | – | > 100 | > 100 | – |
| NC(=O)c1ccc(-c2c3ccccc3cc3c2ccc2ccccc23)cc1 | – | – | 5.11 | 31 | 4.39 | 36 | 3.1 | 14 | 3.82 | 36.5 | 4.54 | 52.8 | 5.83 | > 100 | 3.61 | 19 | 5.51 | 46.9 | 10.8 | 2.36 |
| C(=C1/CCCCC([n+]2ccccc2)=N1)/c1ccccc1 | – | > 100 | – | > 100 | – | > 100 | – | – | – | > 100 | – | > 100 | – | > 100 | – | > 100 | – | – | > 100 | – |
| ClCc1ccc(Cn2cnc3ncnc(Cl)c32)cc1 | 4.3 | > 100 | 2.06 | 5.07 | – | – | 2.82 | 12.1 | 1.9 | 3.78 | 2.01 | 4.42 | – | – | 1.09 | 2.29 | 1.72 | 3.15 | – | – |
| O=C(O)CNS(=O)(=O)c1ccc(NC(=O)c2cccc([N+](=O)[O-])c2)cc1 | – | > 100 | – | > 100 | – | > 100 | – | > 100 | – | > 100 | – | > 100 | – | > 100 | – | > 100 | – | > 100 | – | – |
| O=[N+]([O-])C(=C(c1ccccc1)c1ccccc1)[N+](=O)[O-] | – | 31.3 | – | 26.3 | – | 20.1 | – | – | – | 24.9 | – | 43.2 | – | 22.1 | – | 26.4 | – | 31.3 | 26.3 | – |
| COc1ccc(/C=C/CO)cc1OC | – | – | – | > 100 | – | > 100 | – | > 100 | – | > 100 | – | – | – | – | – | > 100 | – | > 100 | – | – |
